Holding throughout (type): in vivo
Assay [1] concerns Bemisia tabaci. The experiment in a line: Bemisia tabaci leaf dip test (brinjal leaves, whitefly adults). The settings on record: foliar, 72 h after release, dead and moribund combined, compared to untreated control, read-out: percent mortality. How it is done:
The leaf dip method was used for testing, wherein the required quantity of the compound was weighed and dissolved in a tube containing a solvent solution. The tube was put on a vortex at 2000 rpm for 90 min for proper mixing and then the mixture was diluted with a 0.01% Triton-X solution to the desired test concentration. Brinjal leaves were dipped in the compound solution for 10 seconds, shade dried for 20 min and then placed, with the abaxial side of the leaf up, on 4 ml of a 1% agar-agar solution in respective container caps. Known numbers of freshly emerged whitefly adults were collected, using a modified aspirator, and released into a perforated container in which the cap containing the treated leaf was placed. The containers were kept in a plant growth chamber at a temperature of 25° C. and a relative humidity of 70%. Observations on dead, moribund and alive adults were recorded 72 h after the release. Percent mortality was calculated by combining dead and moribund adults and comparing the result to the one of the untreated control. The compounds 32 53 58 79 80 81 82 84 87 88 89 94 95 96 101 102 103 104 105 106 107 108 109 112 113 114 115 116 117 118 119 120 123 124 125 126 127 130 135 138 139 140 144 145 147 150 154 156 158 159 164 167 168 169 170 171 188 189 191 198 199 200 201 202 206 207 208 209 210 213 216 223 224 225 227 228 231 232 233 234 235 236 238 242 243 244 246 and 247 recorded≥70 percent mortality @ 300 PPM.

Assay [2] has as its system Myzus persicae. The experiment in a line: Myzus persicae leaf dip test (capsicum leaves, third instar nymphs). Conditions: foliar, 72 h after release, dead and moribund combined, compared to untreated control, read-out: percent mortality.
Assay [3] relates to Nilaparvata lugens. The experiment in a line: Nilaparvata lugens seedling dip test (paddy seedlings, third instar nymphs). Conditions: 72 h after release, dead and moribund combined, compared to untreated control, read-out: percent mortality.

Turning to `O=c1nc2n(Cc3ccc(Cl)nc3)cccc-2c(=O)n1-c1cc(Cl)cc(C(F)(F)F)c1` [Compound 109, 3-(3-chloro-5-(trifluoromethyl)phenyl)-8-((6-chloropyridin-3-yl)methyl)pyrido[2,3-d]pyrimidine-2,4(3H,8H)-dione], the mortality at 300 ppm in assay [1], in assay [2] and in assay [3] was at least 70% throughout.
With `O=c1nc2n(Cc3ccc(Cl)nc3)cccc-2c(=O)n1-c1ccc(OC(F)(F)F)cc1` [Compound 126, 8-((6-chloropyridin-3-yl)methyl)-3-(4-(trifluoromethoxy)phenyl)pyrido[2,3-d]pyrimidine-2,4(3H,8H)-dione], the mortality at 300 ppm in assay [1] and in assay [2] was at least 70% each time.
On to `O=c1nc2n(Cc3cnc(Cl)nc3)cccc-2c(=O)n1-c1ccc(Br)cc1` [Compound 159, 3-(4-bromophenyl)-8-((2-chloropyrimidin-5-yl)methyl)pyrido[2,3-d]pyrimidine-2,4(3H,8H)-dione], for which the mortality at 300 ppm in assay [1], in assay [2] and in assay [3] was at least 70% throughout.
On to `O=c1nc2n(Cc3cnc(Cl)nc3)cccc-2c(=O)n1-c1cccc(OC(F)(F)F)c1` [Compound 130, 8-((2-chloropyrimidin-5-yl)methyl)-3-(3-(trifluoromethoxy)phenyl)pyrido[2,3-d]pyrimidine-2,4(3H,8H)-dione], for which the mortality at 300 ppm in assay [1] and in assay [3] was at least 70% throughout.
For `O=c1nc2n(Cc3cnc(Cl)nc3)cccc-2c(=O)n1-c1cccc(Br)c1` [Compound 231, 3-(3-bromophenyl)-8-((2-chloropyrimidin-5-yl)methyl)pyrido[2,3-d]pyrimidine-2,4(3H,8H)-dione], the mortality at 300 ppm in assay [1], in assay [2] and in assay [3] was at least 70% in each case.
With `O=c1nc2n(Cc3ccc(Cl)nc3)cccc-2c(=O)n1-c1ccc2c(c1)OC(F)(F)O2` [Compound 199, 8-((6-chloropyridin-3-yl)methyl)-3-(2,2-difluorobenzo[d][1,3]dioxol-5-yl)pyrido[2,3-d]pyrimidine-2,4(3H,8H)-dione], the mortality at 300 ppm in assay [1], in assay [2] and in assay [3] was at least 70% each time.
As to `COc1cc(-n2c(=O)nc3n(Cc4cnc(Cl)s4)cccc-3c2=O)ccc1Cl` [Compound 167, 3-(4-chloro-3-methoxyphenyl)-8-((2-chlorothiazol-5-yl)methyl)pyrido[2,3-d]pyrimidine-2,4(3H,8H)-dione], the mortality at 300 ppm in assay [1] was at least 70%.
Take `O=c1nc2n(Cc3cnc(Cl)nc3)cccc-2c(=O)n1-c1cccc(Cl)c1` [Compound 96, 3-(3-chlorophenyl)-8-((2-chloropyrimidin-5-yl)methyl)pyrido[2,3-d]pyrimidine-2,4(3H,8H)-dione]: the mortality at 300 ppm in assay [1], in assay [2] and in assay [3] was at least 70% throughout.
`O=c1nc2n(Cc3cnc(Cl)nc3)cccc-2c(=O)n1-c1ccc(OC(F)(F)F)c(Cl)c1` [Compound 227, 3-(3-chloro-4-(trifluoromethoxy)phenyl)-8-((2-chloropyrimidin-5-yl)methyl)pyrido[2,3-d]pyrimidine-2,4(3H,8H)-dione]: the mortality at 300 ppm in assay [1] is at least 70%.
For the molecule `O=c1nc2n(Cc3cnc(Cl)nc3)cccc-2c(=O)n1-c1cc(Cl)cc(Cl)c1` [Compound 201, 8-((2-chloropyrimidin-5-yl)methyl)-3-(3,5-dichlorophenyl)pyrido[2,3-d]pyrimidine-2,4(3H,8H)-dione], the mortality at 300 ppm in assay [1], in assay [2] and in assay [3] was at least 70% throughout.
As to `O=c1nc2n(Cc3cnc(Cl)nc3)cccc-2c(=O)n1-c1ccc(F)c(F)c1` [Compound 120, 8-((2-chloropyrimidin-5-yl)methyl)-3-(3,4-difluorophenyl)pyrido[2,3-d]pyrimidine-2,4(3H,8H)-dione], the mortality at 300 ppm in assay [1], in assay [2] and in assay [3] was at least 70% throughout.
Turning to `O=c1nc2n(Cc3ccc(Cl)nc3)cccc-2c(=O)n1-c1cc(C(F)(F)F)cc(C(F)(F)F)c1` [Compound 107, 3-(3,5-bis(trifluoromethyl)phenyl)-8-((6-chloropyridin-3-yl)methyl)pyrido[2,3-d]pyrimidine-2,4(3H,8H)-dione], the mortality at 300 ppm in assay [1] and in assay [2] was at least 70% each time.
Turning to `O=c1nc2n(Cc3cnc(Cl)nc3)cccc-2c(=O)n1-c1ccc(Cl)c(Cl)c1` [Compound 158, 8-((2-chloropyrimidin-5-yl)methyl)-3-(3,4-dichlorophenyl)pyrido[2,3-d]pyrimidine-2,4(3H,8H)-dione], the mortality at 300 ppm in assay [1] is at least 70%.
As to `O=c1nc2n(Cc3ccc(C(F)(F)F)nc3)cccc-2c(=O)n1-c1ccc(Cl)cc1` [Compound 145, 3-(4-chlorophenyl)-8-((6-(trifluoromethyl)pyridin-3-yl)methyl)pyrido[2,3-d]pyrimidine-2,4(3H,8H)-dione], in assay [1], the mortality at 300 ppm is at least 70%.
In the case of `O=c1nc2n(Cc3cnc(Cl)nc3)cccc-2c(=O)n1-c1ccccc1F` [Compound 200, 8-((2-chloropyrimidin-5-yl)methyl)-3-(2-fluorophenyl)pyrido[2,3-d]pyrimidine-2,4(3H,8H)-dione], the mortality at 300 ppm in assay [1] and in assay [3] was at least 70% each time.
Turning to `O=c1nc2n(Cc3cnc(Cl)nc3)cccc-2c(=O)n1-c1ccc(Cl)cc1F` [Compound 147, 3-(4-chloro-2-fluorophenyl)-8-((2-chloropyrimidin-5-yl)methyl)pyrido[2,3-d]pyrimidine-2,4(3H,8H)-dione], the mortality at 300 ppm in assay [1] and in assay [3] was at least 70% in each case.
As to `O=c1nc2n(Cc3cnc(Cl)nc3)cccc-2c(=O)n1-c1c(F)cccc1F` [Compound 206, 8-((2-chloropyrimidin-5-yl)methyl)-3-(2,6-difluorophenyl)pyrido[2,3-d]pyrimidine-2,4(3H,8H)-dione], the mortality at 300 ppm in assay [1] and in assay [3] was at least 70% each time.
For the molecule `O=c1c2cccn(Cc3ccc(Cl)nc3)c-2nc(=S)n1-c1ccc(OC(F)(F)F)cc1` [Compound 209, 8-((6-chloropyridin-3-yl)methyl)-2-thioxo-3-(4-(trifluoromethoxy)phenyl)-2,8-dihydropyrido[2,3-d]pyrimidin-4(3H)-one], the mortality at 300 ppm in assay [1] and in assay [3] was at least 70% in each case.
For `O=c1nc2n(Cc3cnc(Cl)s3)cccc-2c(=O)n1-c1ccc(Cl)cc1` [Compound 80, 3-(4-chlorophenyl)-8-((2-chlorothiazol-5-yl)methyl)pyrido[2,3-d]pyrimidine-2,4(3H,8H)-dione], the mortality at 300 ppm in assay [1] and in assay [2] was at least 70% each time.
For `O=c1nc2n(Cc3cnc(Cl)nc3)cccc-2c(=O)n1-c1ccc(Cl)c(C(F)(F)F)c1` [Compound 224, 3-(4-chloro-3-(trifluoromethyl)phenyl)-8-((2-chloropyrimidin-5-yl)methyl)pyrido[2,3-d]pyrimidine-2,4(3H,8H)-dione], the mortality at 300 ppm in assay [1] and in assay [3] was at least 70% each time.
With `COc1cc(-n2c(=O)nc3n(Cc4cnc(Cl)nc4)cccc-3c2=O)ccc1Cl` [Compound 171, 3-(4-chloro-3-methoxyphenyl)-8-((2-chloropyrimidin-5-yl)methyl)pyrido[2,3-d]pyrimidine-2,4(3H,8H)-dione], the mortality at 300 ppm in assay [1] and in assay [3] was at least 70% each time.
Take `CC(C)n1c(=O)nc2n(Cc3cnc(Cl)nc3)cccc-2c1=O` [Compound 84, 8-((2-chloropyrimidin-5-yl)methyl)-3-isopropylpyrido[2,3-d]pyrimidine-2,4(3H,8H)-dione]: the mortality at 300 ppm in assay [1] and in assay [2] was at least 70% throughout.
As for `Cn1cc(-n2c(=O)nc3n(Cc4cnc(Cl)s4)cccc-3c2=O)cn1` [Compound 89, 8-((2-chlorothiazol-5-yl)methyl)-3-(1-methyl-1H-pyrazol-4-yl)pyrido[2,3-d]pyrimidine-2,4(3H,8H)-dione], the mortality at 300 ppm in assay [1] and in assay [2] was at least 70% in each case.
As to `O=c1nc2n(Cc3ccc(C(F)(F)F)nc3)cccc-2c(=O)n1-c1ccc(F)cc1` [Compound 156, 3-(4-fluorophenyl)-8-((6-(trifluoromethyl)pyridin-3-yl)methyl)pyrido[2,3-d]pyrimidine-2,4(3H,8H)-dione], the mortality at 300 ppm in assay [1] was at least 70%.
In the case of `Cc1ccc(-n2c(=O)nc3n(Cc4cnc(Cl)nc4)cccc-3c2=O)cc1` [Compound 144, 8-((2-chloropyrimidin-5-yl)methyl)-3-(p-tolyl)pyrido[2,3-d]pyrimidine-2,4(3H,8H)-dione], the mortality at 300 ppm in assay [1] was at least 70%.

For the origin of these results see US20240425502A1, “BICYCLIC HETEROAROMATIC COMPOUNDS AND THEIR USE AS PEST CONTROL AGENTS” (PI INDUSTRIES LTD., priority 2021, published 2024).
